In patent US20250334536A1, “MODIFIED OXID[…] ITS APPLICATION” (National Yang Ming Chiao Tung University, priority 2024, published 2025):
Read-outs that look alike come from different tables or passages of the source.

Assays:
[1] = tested on: glucose oxidase nanoparticles; details: comparison value; cited from earlier work
[2] = tested on: nanoparticle composition (enzyme nanoparticles of modified glucose oxidase of the first type crosslinked with glutaraldehyde)
Procedure: Ethanol is then gradually added (5 μl each time) until the solution becomes turbid. Glutaraldehyde is added, and the mixture is stirred at room temperature for 1.5 hours. After the reaction, the formed nanoparticles are collected by centrifugation (12,000 g, 15 minutes). The collected precipitate is resuspended in a mixture of ethanol and deionized water, followed by centrifugation under the same conditions. Subsequently, the nanoparticles are washed twice by centrifugation under the same conditions using ultrapure water. Finally, the precipitate is resuspended in deionized water and stored at 4° C. until use.
Subsequently, the catalytic efficiency of the nanoparticle composition is investigated using the 2,2′-azino-bis(3-ethylbenzothiazoline-6-sulfonic acid) (ABTS) assay. […] The generated H2O2 then reacts with HRP to oxidize the colorless ABTS into the green ABTS radical cation (ABTS^+·), enabling colorimetric analysis of enzyme activity.

[3] = tested on: nanoparticle composition (enzyme nanoparticles of modified glucose oxidase of the first type crosslinked with glutaraldehyde); remark: listed apart in the source
Procedure: Deionized water solutions with varying pH values are then prepared, into which horseradish peroxidase (HRP, 0.4 μg/mL) and ABTS (2.5 mM) are added, followed by addition of the nanoparticle composition (0.1 μg/mL). 1 mL of the resulting mixture is placed in a UV-Vis spectrophotometer (model V670, JASCO), and the detection wavelength is set to 740 nm, corresponding to the characteristic absorption wavelength of ABTS^+·. Subsequently, glucose is added, and the time-dependent absorbance is measured. Using the standard calibration curve of ABTS^+· and the slope of the reaction rate, the time-dependent concentration of ABTS^+· is calculated. Enzyme kinetic parameters are then determined based on the Michaelis-Menten model, with further analysis performed using the Lineweaver-Burk model to evaluate the steady-state enzymatic behavior of the nanoparticle composition under different pH conditions.

[4] = tested on: nanoparticle composition (enzyme nanoparticles of modified glucose oxidase of the first type crosslinked with glutaraldehyde); details: 35° C.
Procedure: Subsequently, an enzyme reaction solution containing the nanoparticle composition (concentration: 0.1 μg/mL), HRP (concentration: 0.4 μg/mL), and ABTS (concentration: 2.5 mM) is prepared. A volume of 400 μL of the reaction solution is transferred to a J-815 circular dichroism spectrometer for subsequent measurements, and a circulating constant-temperature water bath is activated to regulate the temperature to the desired setting. […] The change in absorbance over time is then recorded. Using the standard calibration curve of ABTS^+· and the rate of absorbance change, the corresponding concentration change of ABTS^+· is calculated. Based on the Michaelis-Menten kinetic model, various enzyme kinetic parameters are derived to evaluate the catalytic efficiency and stability of the nanoparticle composition under different temperature conditions.

[5] = nanoparticle composition, substrate glucose

In the case of `OC[C@H]1OC(O)[C@H](O)[C@@H](O)[C@@H]1O` (some centres unmarked) [glucose], the “catalytic efficiency (Kcat/KM)” value [1] is listed as 676 M⁻¹ s⁻¹, the “catalytic efficiency (Kcat/KM), times higher than that of glucose oxidase nanoparticles” value ([2]; nanoparticle composition vs glucose oxidase nanoparticles (676 M^−1·s^−1)) is listed as “approximately 66 times” and the “increase of catalytic efficiency (Kcat/KM) compared to modified glucose oxidase” value ([2]; nanoparticle composition vs modified glucose oxidase) is listed as “more than 300%”. The Kcat [2, 5] was 421.87 s⁻¹, the Kcat/KM [2, 5] was 45200 M⁻¹ s⁻¹ and the Km [2, 5] was 9.33 mM. For the same compound, the VMax [2, 5] was 0.2646 μM^s − 1, the Kcat/KM ([3]; pH 5) was 5000 M⁻¹ s⁻¹ and the Kcat/KM ([3]; pH 7) was “approximately 4.8×10^4 s^−1·M^−1”. For the same compound, the Kcat/KM ([3]; pH 9) was 10000 M⁻¹ s⁻¹ and the Kcat/KM [4] was “approximately 6.0×10^4 s^−1·M^−1”.
